Measurements as given in patent US9951011B2, “Carbazole compounds for in vivo imaging” (priority 2013, dated 2018).
Like-named read-outs stand apart in the source and are kept apart here.

Legend:
[1] = target: T1, TSPO (Homo sapiens, UniProt P30536, T147A); experiment: biochemical
Description: (§1) Membrane protein was prepared from human platelets obtained from 4 donor whole blood samples. […] Platelet pellets were homogenised in 10 ml buffer 1 (0.32 mM sucrose, 5 mM Tris base, 1 mM MgCl2, pH 7.4, 4° C.). The homogenates were centrifuged at 48,000×g for 15 minutes at 4° C. in a Beckman J2-MC centrifuge. The supernatant was removed and pellets were re-suspended in at least 10 ml buffer 2 (50 mM Tris base, 1 mM MgCl2, pH 7.4, 4° C.) and washed by centrifugation at 48,000×g for 15 min at 4° C. in buffer 2. Membranes were suspended in 2 ml buffer 2 and the protein concentration was determined using Protein Assay Kit II (Bio Rad cat #500-0002). Aliquots were stored at −80° C. until use.
(§2) Aliquots of membrane suspension were thawed and homogenised with assay buffer 3 (50 mM Tris base, 140 mM NaCl, 1.5 mM MgCl2, 5 mM KCl, 1.5 mM CaCl2, pH 7.4, 37° C.). […] Non-radioactive Compound 1 was diluted on a Beckman Biomek 2000 workstation at 11 serial dilutions ranging from 1 μM to 0.01 nM. GE180 and non-radioactive Compound 2 were diluted at 11 serial dilutions ranging from 100 μM to 1 nM. Total and nonspecific binding assessments were also performed. 160 μL of platelet membranes diluted to 30 μg/mL were added to the assay plate for a final volume of 200 μL/well. Assay plates were incubated at 37° C. for at least one hour with termination of incubation by filtering onto GF/B glass fibre plates (Perkin Elmer; cat #6005177) pre-soaked in 0.1% PEI in saline for 60 minutes. Assay plates were rinsed five to six times with ice cold buffer 4 (50 mM Tris Base, 1.4 mM MgCl2, pH 7.4, 4° C.) on a Perkin Elmer Filtermate 196. Plates were then dried, the bottoms sealed, and 50 μL of MicroScint 20 (Perkin Elmer cat #6013621) was added to each well. After sealing the tops, the plates were allowed to equilibrate for at least 30 minutes and the captured radioactivity was counted on a Perkin Elmer TopCount NTX. Compound 1 and Compound 2 were used as racemates.
(§3) Compound 1 and Compound 2 were resolved into enantiomers and the competitive binding assay was performed using platelets isolated from the same 4 human donor whole blood samples as described in Example 6.

[2] = target: T2, TSPO (Homo sapiens, UniProt P30536); experiment: biochemical
Description: as §1, §2, §3

[3] = tested on: TSPO; conditions: low:high affinity ratio; resolved enantiomers
Description: as §1, §2, §3

[4] = tested on: TSPO; conditions: in vitro; LABs versus HABs; cited from earlier work
[5] = tested on: TSPO; conditions: low:high affinity ratio; Compounds 1 and 2 used as racemates
Description: as §1
(§4) Aliquots of membrane suspension were thawed and homogenised with assay buffer 3 (50 mM Tris base, 140 mM NaCl, 1.5 mM MgCl2, 5 mM KCl, 1.5 mM CaCl2, pH 7.4, 37° C.). […] Non-radioactive Compound 1 was diluted on a Beckman Biomek 2000 workstation at 11 serial dilutions ranging from 1 μM to 0.01 nM. GE180 and non-radioactive Compound 2 were diluted at 11 serial dilutions ranging from 100 μM to 1 nM. Total and nonspecific binding assessments were also performed. 160 μL of platelet membranes diluted to 30 μg/mL were added to the assay plate for a final volume of 200 μL/well. Assay plates were incubated at 37° C. for at least one hour with termination of incubation by filtering onto GF/B glass fibre plates (Perkin Elmer; cat #6005177) pre-soaked in 0.1% PEI in saline for 60 minutes. Assay plates were rinsed five to six times with ice cold buffer 4 (50 mM Tris Base, 1.4 mM MgCl2, pH 7.4, 4° C.) on a Perkin Elmer Filtermate 196. Plates were then dried, the bottoms sealed, and 50 μL of MicroScint 20 (Perkin Elmer cat #6013621) was added to each well. After sealing the tops, the plates were allowed to equilibrate for at least 30 minutes and the captured radioactivity was counted on a Perkin Elmer TopCount NTX.

[6] = tested on: TSPO; conditions: versus [11C]PBR28; cited from earlier work
[7] = target: T1, TSPO; experiment: biochemical; remark: listed apart in the source
Description: as §1, §4

[8] = target: T2, TSPO; experiment: biochemical; remark: listed apart in the source
Description: as §1, §4

T1 sequence (P30536 2-169 T147A): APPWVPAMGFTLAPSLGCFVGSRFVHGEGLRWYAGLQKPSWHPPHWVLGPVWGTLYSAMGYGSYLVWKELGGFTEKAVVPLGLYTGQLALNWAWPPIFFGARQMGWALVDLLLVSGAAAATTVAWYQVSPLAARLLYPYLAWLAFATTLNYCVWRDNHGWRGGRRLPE
T2 sequence (P30536 2-169): as the sequence (P30536 2-169 T147A) above, with A146T counted along it

With `CCN(Cc1ccccc1)C(=O)[C@H]1CCCc2c1c1ccccc1n2CCF` [Compound 1 E1, (S)—N-benzyl-N-ethyl-9-(2-fluoroethyl)-2,3,4,9-tetrahydro-1H-carbazole-4-carboxamide] the Ki [1] was 4 nM, the Ki [2] was 5 nM and the “Low:High” value [3] was 1.
For `CC(C)N(C)C(=O)[C@@H]1CCCc2c1c1ccccc1n2CCF` [Compound 2 E2], the Ki [1] was 83 nM, the Ki [2] was 402 nM and the “Low:High” value [3] was 5.
For `COc1ccccc1CN(C(C)=O)c1cnccc1Oc1ccccc1` [[3H]PBR28], the “lower TSPO affinity in LABs than in HABs” value [4] is listed as “more than 10 fold”.
In the case of `CCN(CC)C(=O)[C@H]1CCCc2c1c1c(OC)cccc1n2CCF` (stereo in doubt) [GE180, 9-(2-Fluoro-ethyl)-5-methoxy-2,3,4,9-tetrahydro-1H-carbazole-4-carboxylic acid diethylamide, reference compound], the “Low:High” value [5] is reported as 15.44 and the “Low:High” value [3] is reported as 3.
For `CCC(C)N(C)C(=O)c1cc2ccccc2c(-c2ccccc2Cl)n1` (stereo not drawn) [PK11195, reference compound], the “Low:High” value [3] was 1.
With `CCN(Cc1ccccc1)C(=O)[C@@H]1CCCc2c1c1ccccc1n2CCF` [Compound 1 E2] the Ki [1] was 4 nM, the Ki [2] was 125 nM and the “Low:High” value [3] was 32.
For `CCC(C)N(C)C(=O)c1cc2ccccc2c(-c2ccccc2Cl)n1` (stereo not drawn) [[11C]PK11195], the “in vivo specific binding in monkey brain, lower than that reported for [11C]PBR28” value [6] is given as about 80 fold.
With `CC(C)N(C)C(=O)[C@H]1CCCc2c1c1ccccc1n2CCF` [Compound 2 E1, (S)—N-isopropyl-N-methyl-9-(2-fluoroethyl)-2,3,4,9-tetrahydro-1H-carbazole-4-carboxamide] the Ki [1] was 24 nM, the Ki [2] was 23 nM and the “Low:High” value [3] was 1.
In the case of `COc1ccccc1CN(C(C)=O)c1cnccc1Oc1ccccc1` [PBR28, N-(2-methoxybenzyl)-N-(4-phenoxypyridin-3-yl)acetamide, reference compound], the “Low:High” value [3] is reported as 28.
In the case of `CCN(Cc1ccccc1)C(=O)[C@H]1CCCc2c1c1ccccc1n2CCF` (racemic) [Compound 1, (S)—N-benzyl-N-ethyl-9-(2-fluoroethyl)-2,3,4,9-tetrahydro-1H-carbazole-4-carboxamide], the “Low:High” value [5] is reported as 3.24, the Ki [7] is reported as 1.85 nM and the Ki [8] is reported as 5.98 nM.
In the case of `CC(C)N(C)C(=O)[C@H]1CCCc2c1c1ccccc1n2CCF` (racemic) [Compound 2, (S)—N-isopropyl-N-methyl-9-(2-fluoroethyl)-2,3,4,9-tetrahydro-1H-carbazole-4-carboxamide], the “Low:High” value [5] is reported as 1.02, the Ki [7] is reported as 43.8 nM and the Ki [8] is reported as 44.9 nM.
